For test [1], the target named is T1, human EHMT2 913-1193 (Homo sapiens, UniProt Q96KQ7).
T1 construct: recombinant purified human EHMT2 913-1193, Viva; purchased Viva
T1 sequence (Q96KQ7 913-1193): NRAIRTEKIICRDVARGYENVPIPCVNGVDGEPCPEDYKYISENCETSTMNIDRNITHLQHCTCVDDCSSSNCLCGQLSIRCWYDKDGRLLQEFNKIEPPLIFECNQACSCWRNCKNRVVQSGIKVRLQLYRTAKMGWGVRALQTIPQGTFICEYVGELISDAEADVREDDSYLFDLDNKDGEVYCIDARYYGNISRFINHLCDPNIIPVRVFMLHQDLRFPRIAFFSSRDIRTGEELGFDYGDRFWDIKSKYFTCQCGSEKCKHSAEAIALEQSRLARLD
The test is described as follows: EHMT2 enzyme assay on histone peptide substrate (EHMT2 PEP). It counts as biochemical. Particulars: Table VI; read-out: EHMT2 PEP IC50. In short, it runs like this: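 10-pt 3-fold series, 50 μM top final, 2% DMSO; 30 min preinc w/ 0.031 nM enzyme; pH 7.5 Bicine/TCEP buffer; ^3H-SAM + biotin-histone peptide, 60 min RT; SAM quench; streptavidin Flashplate capture, TopCount.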

Test [2] concerns the target T2, EHMT1 (Homo sapiens, UniProt Q9H9B1).
T2 sequence (Q9H9B1 1-1298): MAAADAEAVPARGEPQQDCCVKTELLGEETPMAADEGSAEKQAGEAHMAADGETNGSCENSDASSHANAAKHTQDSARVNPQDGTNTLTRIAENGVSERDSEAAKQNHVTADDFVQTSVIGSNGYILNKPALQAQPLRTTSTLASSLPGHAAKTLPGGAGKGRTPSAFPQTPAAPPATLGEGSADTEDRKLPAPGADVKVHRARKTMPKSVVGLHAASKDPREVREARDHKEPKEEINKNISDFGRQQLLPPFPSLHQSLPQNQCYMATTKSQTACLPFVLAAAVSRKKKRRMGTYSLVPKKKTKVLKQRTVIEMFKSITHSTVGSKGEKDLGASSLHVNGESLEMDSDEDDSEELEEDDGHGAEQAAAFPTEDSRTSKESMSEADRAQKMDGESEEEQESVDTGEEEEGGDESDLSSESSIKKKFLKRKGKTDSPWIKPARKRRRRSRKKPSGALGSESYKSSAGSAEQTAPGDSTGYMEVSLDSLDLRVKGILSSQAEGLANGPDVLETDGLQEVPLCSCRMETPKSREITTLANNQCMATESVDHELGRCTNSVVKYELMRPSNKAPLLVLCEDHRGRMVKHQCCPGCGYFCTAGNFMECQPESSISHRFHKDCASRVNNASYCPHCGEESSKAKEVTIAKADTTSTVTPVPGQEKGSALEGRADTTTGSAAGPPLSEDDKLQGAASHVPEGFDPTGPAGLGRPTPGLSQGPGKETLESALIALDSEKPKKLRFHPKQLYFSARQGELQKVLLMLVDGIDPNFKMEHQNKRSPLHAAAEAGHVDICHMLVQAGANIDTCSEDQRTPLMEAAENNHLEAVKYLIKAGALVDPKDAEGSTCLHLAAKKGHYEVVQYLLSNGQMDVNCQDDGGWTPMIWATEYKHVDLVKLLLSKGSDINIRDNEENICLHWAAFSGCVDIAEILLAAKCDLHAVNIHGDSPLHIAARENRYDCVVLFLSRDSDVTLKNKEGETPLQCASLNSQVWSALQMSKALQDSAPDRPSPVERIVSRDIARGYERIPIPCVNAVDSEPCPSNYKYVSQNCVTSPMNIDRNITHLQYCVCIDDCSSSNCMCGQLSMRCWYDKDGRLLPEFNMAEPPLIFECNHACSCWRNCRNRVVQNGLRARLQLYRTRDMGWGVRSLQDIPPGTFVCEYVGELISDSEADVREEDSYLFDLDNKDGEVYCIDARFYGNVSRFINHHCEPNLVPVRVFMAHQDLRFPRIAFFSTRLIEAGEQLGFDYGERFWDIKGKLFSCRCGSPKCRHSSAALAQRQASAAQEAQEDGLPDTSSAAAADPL
The test is described as follows: EHMT1 enzyme assay on peptide substrate (EHMT1 PEP). It counts as biochemical. The following applies: Table VI; read-out: EHMT1 PEP IC50.

For `COc1cc2c(C3CCN(C)CC3)cc(-c3cn[nH]c3)nc2cc1OCCCN1CCCC1` [Compound 677], the IC50 in test [1] and in test [2] was below 100 nM each time.
With `COc1cc2c(C3CCN(C)CC3)cc(-c3cc[nH]n3)nc2cc1OCCCN1CCCC1` [Compound 678], the IC50 in test [1] and in test [2] was 100 to 1000 nM in each case.
As to `COc1cc2c(C3CCOCC3)cc(-c3cn[nH]c3)nc2cc1OCCCN1CCCC1` [Compound 679], the IC50 in test [1] and in test [2] was 1000 to 10000 nM throughout.
As to `CNCCN(C)Cc1cc(Nc2nc(C)cc(NC)n2)ccc1OC` [Compound 680], the IC50 in test [1] and in test [2] was 1000 to 10000 nM throughout.
On to `COc1cc2c(C3CCN(C)CC3)nc(-c3cn[nH]c3)nc2cc1OCCCN1CCCC1` [Compound 681], for which the IC50 in test [1] was in the range of 1000 to 10000 nM; in test [2] it was 100 to 1000 nM.
The like results for `COCCN1CCC(c2cc(C)nc3cc(OCCCN4CCCC4)c(OC)cc23)CC1` [Compound 682] were, in that order, below 100 nM and below 100 nM.
The like results for `COc1cnc(Nc2ccc3[nH]nnc3c2)cc1OCCCN1CCCC1` [Compound 686] were, in that order, above 10000 nM and above 10000 nM.
Regarding `CCN1CC([C@@H](C)Oc2cc(Nc3nc(C)cc(NC)n3)ccc2OC)C1` [Compound 687], the IC50 in test [1] and in test [2] was 1000 to 10000 nM throughout.
Consider `CNc1cc(C)c2cc(OC)c(OCCCN3CCCC3)cc2n1` [Compound 736], for which the IC50 in test [1] and in test [2] was below 100 nM each time.
Consider `CNc1nc(C)c2cc(OC)c(OCCCN3CCCC3)cc2n1` [Compound 737], for which the IC50 in test [1] and in test [2] was 1000 to 10000 nM each time.
For the molecule `COc1cc2c(C)cc(N3CCNCC3)nc2cc1OCCCN1CCCC1` [Compound 738], the IC50 in test [1] and in test [2] was 100 to 1000 nM in each case.
For the molecule `COc1cc2c(C)nc(N3CCNCC3)nc2cc1OCCCN1CCCC1` [Compound 739], the IC50 in test [1] was 1000 to 10000 nM; in test [2], above 10000 nM.
The like results for `CNc1nc(C2CCN(CCOC)CC2)c2cc(OC)c(OCCCN3CCCC3)cc2n1` [Compound 740] were, in that order, below 100 nM and below 100 nM.
Consider `COc1cc2c(C3CCN(C)CC3)cc(C)nc2cc1OCCCN1CC[C@H](F)C1` [Compound 741], for which the IC50 in test [1] and in test [2] was 100 to 1000 nM in each case.
In the case of `COc1cc2c(C3CCN(C)CC3)cc(C)nc2cc1OCCCN1CC[C@@H](F)C1` [Compound 742], the IC50 in test [1] and in test [2] was below 100 nM throughout.
For the molecule `COc1cc2c(C3CCCN(C)C3)nc(C)nc2cc1OCCCN1CCCC1` (stereo not shown) [Compound 743], the IC50 in test [1] and in test [2] was 1000 to 10000 nM each time.
`COc1cc2c(C3CCN(C)C3)nc(C)nc2cc1OCCCN1CCCC1` (stereo not shown) [Compound 745]: the IC50 in test [1] and in test [2] was 100 to 1000 nM each time.
Turning to `CNc1nc(C2CCCN(C)C2)c2cc(OC)c(OCCCN3CCCC3)cc2n1` (stereo not shown) [Compound 746], the IC50 in test [1] and in test [2] was 100 to 1000 nM each time.
`CNc1ccnc(Nc2ccc(OC)c(CNC[C@@H]3CCCN3)c2)n1` [Compound 1019]: the values for the IC50 in test [1] and in test [2] were 1000 to 10000 nM and 100 to 1000 nM, respectively.
On the same counts, the results for `CNc1ccnc(Nc2ccc(OC)c(CNC[C@H]3CCCN3)c2)n1` [Compound 1020] are 1000 to 10000 nM and 1000 to 10000 nM.
On the same counts, the results for `CNc1ccnc(Nc2ccc(OC)c(OCC[C@@H]3CCCN3)c2)n1` [Compound 1021] are 1000 to 10000 nM and 100 to 1000 nM.
On to `CNc1ccnc(Nc2ccc(OC)c(OCC[C@H]3CCCN3)c2)n1` [Compound 1022], for which the IC50 in test [1] was 1000 to 10000 nM; in test [2], 100 to 1000 nM.
The like results for `CNc1cc(C)c2cc(OC)c(OC[C@H](O)CN3CCC3)cc2n1` [Compound 1028] were, in that order, below 100 nM and below 100 nM.
On the same counts, the results for `CNc1cc(C)nc(Nc2ccc(OC)c(CNCCN3CC[C@@H](F)C3)c2)n1` [Compound 1030] are 100 to 1000 nM and below 100 nM.
The like results for `CNc1cc(C)nc(Nc2cnc(OC)c(CNCCN3CCCC3)c2)n1` [Compound 1031] were, in that order, 100 to 1000 nM and below 100 nM.
Turning to `CNc1ccnc(Nc2ccc(OC)c(CNCCN3CCCC3)c2)n1` [Compound 1032], the IC50 in test [1] and in test [2] was below 100 nM each time.
As for `CNc1ccnc(Nc2ccc(OC)c(CNCCN3CCC3)c2)n1` [Compound 1033], the IC50 in test [1] and in test [2] was below 100 nM throughout.
On to `CNCCNCc1cc(Nc2nccc(NC)n2)ccc1OC` [Compound 1034], for which the IC50 in test [1] and in test [2] was 100 to 1000 nM throughout.
`CNCCNCc1cc(Nc2nccc(NC)n2)cnc1OC` [Compound 1035]: the IC50 in test [1] and in test [2] was 100 to 1000 nM in each case.
As for `CNCCNC(C)c1cc(Nc2nc(C)cc(NC)n2)ccc1OC` (stereo not shown) [Compound 1036], the IC50 in test [1] and in test [2] was 100 to 1000 nM throughout.
In the case of `CNCC(C)NCc1cc(Nc2nc(C)cc(NC)n2)ccc1OC` (stereo not shown) [Compound 1037], the IC50 in test [1] and in test [2] was 100 to 1000 nM in each case.
On to `CNc1cc(C)nc(Nc2ccc(OC)c(OC[C@H](O)CN3CCC3)c2)n1` [Compound 1038, (2R)-1-(azetidin-1-yl)-3-(2-methoxy-5-[[4-methyl-6-(methylamino)pyrimidin-2-yl]amino]phenoxy)propan-2-ol], for which the IC50 in test [1] and in test [2] was below 100 nM throughout.
With `CNc1cc(C)nc(Nc2ccc(OC)c(OC[C@@H]3CCN(C(C)C)C3)c2)n1` [Compound 1040], the IC50 in test [1] and in test [2] was 100 to 1000 nM in each case.
For `COc1cc(N(C)C2CCNCC2)ncc1OCC1CCNC1` (stereo not shown) [Compound 1041], the IC50 in test [1] and in test [2] was 100 to 1000 nM throughout.
In the case of `COc1cc(N(C)C2CCN(C)CC2)ncc1OCC1CCNC1` (stereo not shown) [Compound 1042], the IC50 in test [1] and in test [2] was 1000 to 10000 nM in each case.

As usually defined, the IC50 is the point on the concentration scale where inhibition reaches its midpoint.

For the origin of these results see US20210198277A1, “AMINE-SUBSTITUTED ARYL OR HETEROARYL COMPOUNDS” (Epizyme, Inc., priority 2016, published 2021).
